Test results taken from patent US20030181510A1, “Inhibition of muscle regeneration following myectomy” (priority 2002, published 2003).

Tests used:
[1] = test system: satellite cells derived from mouse gastrocnemius and soleus muscles; assay: Satellite cell proliferation in secondary satellite cell cultures (cell count per ocular grid); type: cell-based; settings: genistein added to culture medium as in Example 1, on day 1 or day 2; control 0.05% DMSO; P<0.0001 one day after, P<0.00001 at days 2-5 after addition; FIG. 2
Excerpt: Method: To analyze satellite cell proliferation secondary satellite cell cultures derived from mouse gastrocnemius and soleus muscles prepared as in Example 1 were fed fresh medium every day. This generally accepted procedure prolongs proliferation and inhibits differentiation and fusion. Two experimental groups were formed by adding genistein to the culture medium, as in Example 1. […] Living cultures were placed on the stage of a phase-contrast microscope and the number of cells contained within an ocular grid was counted at 100× to 200× total magnification. This cell-counting procedure was performed daily through the sixth day of culture.

[2] = test system: mouse primary satellite cells; assay: Fusion of mouse primary satellite cells to myofibers in culture (fusion index); type: cell-based; settings: genistein in culture medium, added on first, second or third day of culture; control 0.05% DMSO; day 3 P<0.002, day 5 P<0.0001 (Student's t-test); FIG. 1
Protocol: Method: Thigh muscle tissue was removed from post-natal day 20-30 mouse pups and the tissue reduced to single cells by a method based largely on a protocol by DiMario and Strohman (DiMario, J. and Strohman, R. C.; 1988). Gastrocnemius and soleus muscles were dissected free of surrounding tissue and finely minced with scissors. The minced tissue was mixed with 0.10% crude collagenase and incubated at 37° C. for 30 minutes with occasional trituration through the bore of a 5 ml glass pipette to break up tissue pieces. The collagenase-tissue slurry was centrifuged briefly to pellet the tissue pieces, muscle fibers, and cells. […] The number of cells was determined and aliquots were appropriately diluted with culture medium so that a known number of satellite cells (80,000) could be added to additional 35 mm collagen-coated dishes for analysis of cell proliferation and fusion. […]
Fusion of satellite cells to form muscle fibers is generally accomplished by removing the source of growth factors in the culture medium. […] As fusion of satellite cells to form myofibers began, the number of nuclei contained within mononucleated cells, primarily satellite cells, and those within myofibers were counted differentially at a magnification of 200×. […]

[3] = populations of Southeast Asians consuming 70 mg/day of genistein; cited from earlier work

For `O=c1c(-c2ccc(O)cc2)coc2cc(O)cc(O)c12` [genistein, 5,7-dihydroxy-3-(4-hydroxyphenyl)-4H-1-benzopyran-4-one], the “division of satellite cells (number of cells per reticle-grid vs control cultures)” value [1] is given as “eliminated the division of satellite cells”, the “fusion of satellite cells (fusion index vs control cultures)” value [2] is given as “inhibited the fusion of satellite cells” and the “ill effects on dietary consumption” value [3] is given as “without obvious ill effects”.
